Data as given in patent US10881599B2, “Whitening composition including novel kaempferol-based compound derived from post-fermented tea” (AMOREPACIFIC CORPORATION, priority 2017, dated 2021).

Legend:
Mel-Ab cell line = assay: Melanin production-inhibitory effect (Dooley's method); format: cell-based, C57BL/6; conditions: Mel-Ab cells, melanin after 5 days, absorbance at 400 nm
skin = assay: Human repeated insult patch test (HRIPT), skin accumulation stimulation; format: in vivo; set-up: key to Skin reactivity (ICDRG criteria): −: negative (no response); ±: doubtful or slight erythema, etc.; +: weak reaction (which is accompanied with no phlyctenule), erythema, papule; ++: severe reaction (which is accompanied with phlyctenule), erythema, papule, phlyctenule; +++: strong reaction, bullae reaction; conditions: for Number of subjects with ±, +, or ++ reactivity, 1st: 1st patch; for Number of subjects with ±, +, or ++ reactivity, 2nd: 2nd patch; for Number of subjects with ±, +, or ++ reactivity, 3rd: 3rd patch; for Number of subjects with ±, +, or ++ reactivity, 4th: 4th patch; for Number of subjects with ±, +, or ++ reactivity, 5th: 5th patch; for Number of subjects with ±, +, or ++ reactivity, 6th: 6th patch; for Number of subjects with ±, +, or ++ reactivity, 7th: 7th patch; for Number of subjects with ±, +, or ++ reactivity, 8th: 8th patch; for Average reactivity: 9 patches, 15 subjects, less than 3 is considered stable; for Number of subjects with ±, +, or ++ reactivity, 9th: 9th patch
Procedure: Human repeated insult patch tests (HRIPT) were performed to confirm the skin accumulation stimulation of the kaempferol3-O-[2-O″-(E)-p-coumaroyl][beta-D-glucopyranosyl-(1→3)-O-alpha-L-rhamnopyranosyl-(1→6)-O-beta-D-glucopyranoside] and to calculate the concentration range available for the skin.
Specifically, 15 healthy adult subjects were randomly selected, and the test composition (the skin composition including an emulsifier, a stabilizer, purified water, etc. in addition to the compound) containing 0.5 wt %, 1 wt %, and 3 wt % of the compound was added dropwise by 20 μl per chamber (IQ chamber, Epitest Ltd, Finland). After 24 hours from patching the upper right part of the back of a subject, it was replaced with the new patch. A total of 9 patches were conducted, three times a week for total 3 weeks, in such manner, the skin reactions before and after patch were examined every time, and the skin reactions until 48 hours after removing the final patch were observed, and the average reactivity was observed.
The skin response was determined according to the criteria of the International Contact Dermatitis Research Group (ICDRG). ‘New material 33’ in the table above is kaempferol3-O-[2-O″-(E)-p-coumaroyl][beta-D-glucopyranosyl-(1→3)-O-alpha-L-rhamnopyranosyl-(1→6)-O-beta-D-glucopyranoside].

mushroom tyrosinase = assay: Tyrosinase activity-inhibitory effect; format: biochemical; conditions: L-tyrosine, 20 minutes at 37° C., absorbance at 490 nm
Procedure: The tyrosinase activity-inhibitory effect of new material 33 was evaluated. Specifically, tyrosinase and tyrosine derived from mushrooms were obtained from Sigma Chemical. […] Tyrosinase activity was assessed by measuring the absorbance at 490 nm using a microplate reader (Bio-Rad 3550, Richmond, Calif., U.S.A.) after an enzyme reaction for 20 minutes at 37° C.

SMILES: O=c1cc(CO)occ1O [Kojic acid, reference compound]
- Melanin production-inhibitory effect IC50 (Mel-Ab cell line): 39.36 ppm

SMILES: C[C@@H]1O[C@@H](OC[C@H]2O[C@@H](Oc3c(-c4ccc(O)cc4)oc4cc(O)cc(O)c4c3=O)[C@H](OC(=O)/C=C/c3ccc(O)cc3)[C@@H](O)[C@@H]2O)[C@H](O)[C@H](O[C@@H]2O[C@H](CO)[C@@H](O)[C@H](O)[C@H]2O)[C@H]1O [new material 33, kaempferol3-O-[2-O″-(E)-p-coumaroyl][beta-D-glucopyranosyl-(1→3)-O-alpha-L-rhamnopyranosyl-(1→6)-O-beta-D-glucopyranoside]]
- Melanin production-inhibitory effect IC50 (Mel-Ab cell line): 15.7 ppm
- Skin reactivity (ICDRG criteria) (skin; 0.5 wt %, 1 wt % and 3 wt %, all subjects, all patches): −
- Number of subjects with ±, +, or ++ reactivity, 1st (skin; 0.5 wt %, line 1 of 3 (±)): 0 person
- Number of subjects with ±, +, or ++ reactivity, 1st (skin; 0.5 wt %, line 2 of 3 (+)): 0 person
- Number of subjects with ±, +, or ++ reactivity, 1st (skin; 0.5 wt %, line 3 of 3 (++)): 0 person
- Number of subjects with ±, +, or ++ reactivity, 2nd (skin; 0.5 wt %, line 1 of 3 (±)): 0 person
- Number of subjects with ±, +, or ++ reactivity, 2nd (skin; 0.5 wt %, line 2 of 3 (+)): 0 person
- Number of subjects with ±, +, or ++ reactivity, 2nd (skin; 0.5 wt %, line 3 of 3 (++)): 0 person
- Number of subjects with ±, +, or ++ reactivity, 3rd (skin; 0.5 wt %, line 1 of 3 (±)): 0 person
- Number of subjects with ±, +, or ++ reactivity, 3rd (skin; 0.5 wt %, line 2 of 3 (+)): 0 person
- Number of subjects with ±, +, or ++ reactivity, 3rd (skin; 0.5 wt %, line 3 of 3 (++)): 0 person
- Number of subjects with ±, +, or ++ reactivity, 4th (skin; 0.5 wt %, line 1 of 3 (±)): 0 person
- Number of subjects with ±, +, or ++ reactivity, 4th (skin; 0.5 wt %, line 2 of 3 (+)): 0 person
- Number of subjects with ±, +, or ++ reactivity, 4th (skin; 0.5 wt %, line 3 of 3 (++)): 0 person
- Number of subjects with ±, +, or ++ reactivity, 5th (skin; 0.5 wt %, line 1 of 3 (±)): 0 person
- Number of subjects with ±, +, or ++ reactivity, 5th (skin; 0.5 wt %, line 2 of 3 (+)): 0 person
- Number of subjects with ±, +, or ++ reactivity, 5th (skin; 0.5 wt %, line 3 of 3 (++)): 0 person
- Number of subjects with ±, +, or ++ reactivity, 6th (skin; 0.5 wt %, line 1 of 3 (±)): 0 person
- Number of subjects with ±, +, or ++ reactivity, 6th (skin; 0.5 wt %, line 2 of 3 (+)): 0 person
- Number of subjects with ±, +, or ++ reactivity, 6th (skin; 0.5 wt %, line 3 of 3 (++)): 0 person
- Number of subjects with ±, +, or ++ reactivity, 7th (skin; 0.5 wt %, line 1 of 3 (±)): 0 person
- Number of subjects with ±, +, or ++ reactivity, 7th (skin; 0.5 wt %, line 2 of 3 (+)): 0 person
- Number of subjects with ±, +, or ++ reactivity, 7th (skin; 0.5 wt %, line 3 of 3 (++)): 0 person
- Number of subjects with ±, +, or ++ reactivity, 8th (skin; 0.5 wt %, line 1 of 3 (±)): 0 person
- Number of subjects with ±, +, or ++ reactivity, 8th (skin; 0.5 wt %, line 2 of 3 (+)): 0 person
- Number of subjects with ±, +, or ++ reactivity, 8th (skin; 0.5 wt %, line 3 of 3 (++)): 0 person
- Average reactivity (skin; 0.5 wt %): 0
- Number of subjects with ±, +, or ++ reactivity, 9th (skin; 0.5 wt %, line 1 of 3 (±)): 0 person
- Number of subjects with ±, +, or ++ reactivity, 9th (skin; 0.5 wt %, line 2 of 3 (+)): 0 person
- Number of subjects with ±, +, or ++ reactivity, 9th (skin; 0.5 wt %, line 3 of 3 (++)): 0 person
- Number of subjects with ±, +, or ++ reactivity, 1st (skin; 1 wt %, line 1 of 3 (±)): 0 person
- Number of subjects with ±, +, or ++ reactivity, 1st (skin; 1 wt %, line 2 of 3 (+)): 0 person
- Number of subjects with ±, +, or ++ reactivity, 1st (skin; 1 wt %, line 3 of 3 (++)): 0 person
- Number of subjects with ±, +, or ++ reactivity, 2nd (skin; 1 wt %, line 1 of 3 (±)): 0 person
- Number of subjects with ±, +, or ++ reactivity, 2nd (skin; 1 wt %, line 2 of 3 (+)): 0 person
- Number of subjects with ±, +, or ++ reactivity, 2nd (skin; 1 wt %, line 3 of 3 (++)): 0 person
- Number of subjects with ±, +, or ++ reactivity, 3rd (skin; 1 wt %, line 1 of 3 (±)): 0 person
- Number of subjects with ±, +, or ++ reactivity, 3rd (skin; 1 wt %, line 2 of 3 (+)): 0 person
- Number of subjects with ±, +, or ++ reactivity, 3rd (skin; 1 wt %, line 3 of 3 (++)): 0 person
- Number of subjects with ±, +, or ++ reactivity, 4th (skin; 1 wt %, line 1 of 3 (±)): 0 person
- Number of subjects with ±, +, or ++ reactivity, 4th (skin; 1 wt %, line 2 of 3 (+)): 0 person
- Number of subjects with ±, +, or ++ reactivity, 4th (skin; 1 wt %, line 3 of 3 (++)): 0 person
- Number of subjects with ±, +, or ++ reactivity, 5th (skin; 1 wt %, line 1 of 3 (±)): 0 person
- Number of subjects with ±, +, or ++ reactivity, 5th (skin; 1 wt %, line 2 of 3 (+)): 0 person
- Number of subjects with ±, +, or ++ reactivity, 5th (skin; 1 wt %, line 3 of 3 (++)): 0 person
- Number of subjects with ±, +, or ++ reactivity, 6th (skin; 1 wt %, line 1 of 3 (±)): 0 person
- Number of subjects with ±, +, or ++ reactivity, 6th (skin; 1 wt %, line 2 of 3 (+)): 0 person
- Number of subjects with ±, +, or ++ reactivity, 6th (skin; 1 wt %, line 3 of 3 (++)): 0 person
- Number of subjects with ±, +, or ++ reactivity, 7th (skin; 1 wt %, line 1 of 3 (±)): 0 person
- Number of subjects with ±, +, or ++ reactivity, 7th (skin; 1 wt %, line 2 of 3 (+)): 0 person
- Number of subjects with ±, +, or ++ reactivity, 7th (skin; 1 wt %, line 3 of 3 (++)): 0 person
- Number of subjects with ±, +, or ++ reactivity, 8th (skin; 1 wt %, line 1 of 3 (±)): 0 person
- Number of subjects with ±, +, or ++ reactivity, 8th (skin; 1 wt %, line 2 of 3 (+)): 0 person
- Number of subjects with ±, +, or ++ reactivity, 8th (skin; 1 wt %, line 3 of 3 (++)): 0 person
- Average reactivity (skin; 1 wt %): 0
- Number of subjects with ±, +, or ++ reactivity, 9th (skin; 1 wt %, line 1 of 3 (±)): 0 person
- Number of subjects with ±, +, or ++ reactivity, 9th (skin; 1 wt %, line 2 of 3 (+)): 0 person
- Number of subjects with ±, +, or ++ reactivity, 9th (skin; 1 wt %, line 3 of 3 (++)): 0 person
- Number of subjects with ±, +, or ++ reactivity, 1st (skin; 3 wt %, line 1 of 3 (±)): 0 person
- Number of subjects with ±, +, or ++ reactivity, 1st (skin; 3 wt %, line 2 of 3 (+)): 0 person
- Number of subjects with ±, +, or ++ reactivity, 1st (skin; 3 wt %, line 3 of 3 (++)): 0 person
- Number of subjects with ±, +, or ++ reactivity, 2nd (skin; 3 wt %, line 1 of 3 (±)): 0 person
- Number of subjects with ±, +, or ++ reactivity, 2nd (skin; 3 wt %, line 2 of 3 (+)): 0 person
- Number of subjects with ±, +, or ++ reactivity, 2nd (skin; 3 wt %, line 3 of 3 (++)): 0 person
- Number of subjects with ±, +, or ++ reactivity, 3rd (skin; 3 wt %, line 1 of 3 (±)): 0 person
- Number of subjects with ±, +, or ++ reactivity, 3rd (skin; 3 wt %, line 2 of 3 (+)): 0 person
- Number of subjects with ±, +, or ++ reactivity, 3rd (skin; 3 wt %, line 3 of 3 (++)): 0 person
- Number of subjects with ±, +, or ++ reactivity, 4th (skin; 3 wt %, line 1 of 3 (±)): 0 person
- Number of subjects with ±, +, or ++ reactivity, 4th (skin; 3 wt %, line 2 of 3 (+)): 0 person
- Number of subjects with ±, +, or ++ reactivity, 4th (skin; 3 wt %, line 3 of 3 (++)): 0 person
- Number of subjects with ±, +, or ++ reactivity, 5th (skin; 3 wt %, line 1 of 3 (±)): 0 person
- Number of subjects with ±, +, or ++ reactivity, 5th (skin; 3 wt %, line 2 of 3 (+)): 0 person
- Number of subjects with ±, +, or ++ reactivity, 5th (skin; 3 wt %, line 3 of 3 (++)): 0 person
- Number of subjects with ±, +, or ++ reactivity, 6th (skin; 3 wt %, line 1 of 3 (±)): 0 person
- Number of subjects with ±, +, or ++ reactivity, 6th (skin; 3 wt %, line 2 of 3 (+)): 0 person
- Number of subjects with ±, +, or ++ reactivity, 6th (skin; 3 wt %, line 3 of 3 (++)): 0 person
- Number of subjects with ±, +, or ++ reactivity, 7th (skin; 3 wt %, line 1 of 3 (±)): 0 person
- Number of subjects with ±, +, or ++ reactivity, 7th (skin; 3 wt %, line 2 of 3 (+)): 0 person
- Number of subjects with ±, +, or ++ reactivity, 7th (skin; 3 wt %, line 3 of 3 (++)): 0 person
- Number of subjects with ±, +, or ++ reactivity, 8th (skin; 3 wt %, line 1 of 3 (±)): 0 person
- Number of subjects with ±, +, or ++ reactivity, 8th (skin; 3 wt %, line 2 of 3 (+)): 0 person
- Number of subjects with ±, +, or ++ reactivity, 8th (skin; 3 wt %, line 3 of 3 (++)): 0 person
- Average reactivity (skin; 3 wt %): 0
- Number of subjects with ±, +, or ++ reactivity, 9th (skin; 3 wt %, line 1 of 3 (±)): 0 person
- Number of subjects with ±, +, or ++ reactivity, 9th (skin; 3 wt %, line 2 of 3 (+)): 0 person
- Number of subjects with ±, +, or ++ reactivity, 9th (skin; 3 wt %, line 3 of 3 (++)): 0 person
- Tyrosinase activity-inhibitory effect IC50 (mushroom tyrosinase): 11 ppm
